This is an account of results in US4939133A, “N-substituted-2-hydroxy-α-oxo-benzeneacetamides and pharmaceutical compositions having activity as modulators of the arachidonic acid cascade” (Warner-Lambert Company, priority 1985, dated 1990).

For this test, the target named is Human Leukocyte Lipoxygenase. The experiment in a line: Human Leukocyte Lipoxygenase Assay (LDA-H / LDAH). Type of test: biochemical. The note with it: 50% reduction of reaction rate vs control, E -number means X 10^-no. The procedure: Human Leukocyte Lipoxygenase Assay (LDA-H)
Whole blood is collected from normal volunteers and spun in a refrigerated centrifuge for four minutes at 1°-6° C. at 3800 g. The buffy coat is manually separated and washed twice with chilled 0.83% NH4 Cl and centrifuged at 1000 RPM for ten minutes at 4° C. The white cell is suspended in culture media-EMEM supplemented with 6% Agamma human serum, tricine buffer, and neomycin and recentrifuged at 1000 g to yield a pellet containing the leukocytes used for the preparation of the acetone pentane powder.
The acetone-pentane powder is prepared utilizing a modification of the procedure reported for human platelet lipoxygenase. See Siegel, et al, Arachidonate Metabolism via Lipoxygenase and 12-L-hydroperoxy-5-Eicostetraenoic acid Peroxidase Sensitive to Antiinflammatory Drugs, Proc. Natl. Acad. Sci., USA 77:308, 1980 and D. P. Wallach and V. R. Brown, a novel Preparation of Human Platlet Lipoxygenase, Biochem. Biophys. Acta. 663:361, 1981. Buffy coat prepared above is resuspended in 5-7 volumes of cold 0.1M Tris buffer, pH 7.4 containing 0.154M NaCl. The suspension is centrifuged at 13,300 g for ten minutes at 4° C. The resultant pellet was retained, resuspended in five volumes of cold acetone, recentrifuged at 13,300 g and resuspended in five volumes of cold pentane. The pentane suspension is centrifuged for ten minutes at 13,300 g to give a pellet which is dried in the cold under vacuum with periodic pulverization. The dry powder is stable for several weeks when stored at -88° C.
Enzyme stock solution is prepared in the following manner. About 15 mg of the acetone-pentane powder sis suspended in 4 ml of cold tris buffer (0.1M, pH 7.4), allowed to stand for five minutes, and homogenized thorougly. The homogenate is sonicated three times for 15 seconds each time, diluted to 7 ml with cold tris buffer (0.1M, pH 7.4), and centrifuged at 4° C. for 60 minutes at 13,300 g. The supernatent is retained and diluted to a total of 10 ml with cold tris buffer (0.1M, pH 7.4) to give the stck enzyme solution. Additional dilutions of 2-50 fold are done as necessary to locate optimal enzyme reaction rate in the assay described below.
Substrate solution is prepared at 100 μM or 1.0 μM concentrations of arachidonic acid or linoleic acid in 0.1M tris buffer, pH 9.0 containing 20% ethanol.
The enzyme reaction is followed spectrophotometrically by the appearance of a conjugated diene product at 234 nm. The reaction is monitored at 24° C. using a Gilford Model 2600 spectrophotometer. […] The effects of inhibitors on the reaction are compared with control reactions run under indentical conditions. Routinely, each compounds of the present invention is incubated with the enzyme for five minutes prior to addition of substrate to initiate the reaction. Inhibition expressed as IC50 as molar concentration of the compound required to reduce reaction rate to 50% control.

In the case of `COc1ccc(CCc2ccc(NC(=O)c3ccc(C)cc3O)cc2)cc1OC` [Example 46, N-[4-[2-(3,4-Dimethoxyphenyl)ethyl]phenyl]-2-hydroxy-4-methylbenzamide], the 50% inhibitory concentration (IC50) turned out to be 14 µM.
